According to PMC8219695 (Nature Communications, 2021):
Several values for one entry are separate records, joined by “and”; a condition that tells them apart may be missing. Identical values can stand only once.

What was measured:
[1] = target: hDOR (Homo sapiens, UniProt P41143); experiment: CAMYEL BRET cAMP agonist assay at hDOR; assay type: cell-based; settings: for Agonist activity of 7OH analogs at hDOR: single replicate values, Supplementary Figure 7A, listed as 7-OH-Mitragynine
[2] = target: T1, rKOR (Rattus norvegicus, UniProt P34975); experiment: CAMYEL BRET cAMP agonist assay at rKOR; assay type: cell-based; settings: individual replicates, Supplementary Figure 8B source data
T1 construct: expressed in transfected cells
T1 sequence (P34975 whole entry): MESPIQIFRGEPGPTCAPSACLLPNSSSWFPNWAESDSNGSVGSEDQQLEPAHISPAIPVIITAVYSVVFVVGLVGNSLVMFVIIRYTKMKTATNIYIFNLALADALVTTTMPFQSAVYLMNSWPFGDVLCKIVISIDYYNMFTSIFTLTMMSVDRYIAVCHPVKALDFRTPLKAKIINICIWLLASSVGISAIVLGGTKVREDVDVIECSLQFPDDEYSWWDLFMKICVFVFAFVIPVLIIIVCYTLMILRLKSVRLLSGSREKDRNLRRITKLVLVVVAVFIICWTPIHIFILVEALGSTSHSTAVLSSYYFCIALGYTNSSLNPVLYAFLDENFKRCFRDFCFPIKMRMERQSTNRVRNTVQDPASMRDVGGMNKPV

[3] = target: T2, mMOR (Mus musculus, UniProt P42866); experiment: [125I]BNtxA radioligand competition binding, mouse MOR
T2 construct: signal peptide (heterologous, not specified) (N); expressed in transfected cells; pcDNA3.1(+) construct made in house
T2 sequence (P42866 whole entry): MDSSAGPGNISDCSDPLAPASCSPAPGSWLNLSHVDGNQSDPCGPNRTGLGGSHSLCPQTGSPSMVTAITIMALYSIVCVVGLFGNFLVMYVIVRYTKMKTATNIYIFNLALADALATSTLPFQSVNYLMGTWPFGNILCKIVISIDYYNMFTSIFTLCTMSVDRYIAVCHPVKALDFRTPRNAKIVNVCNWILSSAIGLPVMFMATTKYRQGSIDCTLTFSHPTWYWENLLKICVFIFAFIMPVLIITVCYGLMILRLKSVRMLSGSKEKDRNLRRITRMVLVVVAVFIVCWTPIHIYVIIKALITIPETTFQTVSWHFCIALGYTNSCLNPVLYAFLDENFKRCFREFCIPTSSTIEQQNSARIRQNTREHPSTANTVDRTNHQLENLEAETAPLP

[4] = target: T2, mMOR; experiment: CAMYEL BRET cAMP agonist assay at mMOR; assay type: cell-based; settings: for cAMP %: single replicates, source data Fig 6b
[5] = test system: CD1 mice; experiment: Tail-flick antinociception in CD1 mice; assay type: in vivo, mouse; settings: Fig 9b; 7OH 2 mg/kg, sc; individual animals
[6] = target: T3, mDOR (Mus musculus, UniProt P32300); experiment: CAMYEL BRET cAMP agonist assay at mDOR; assay type: cell-based; settings: for Agonist activity of 7OH analogs at mDOR: single replicate values, Supplementary Figure 7B, listed as 7-OH-Mitragynine
T3 construct: expressed in transfected cells
T3 sequence (P32300 whole entry): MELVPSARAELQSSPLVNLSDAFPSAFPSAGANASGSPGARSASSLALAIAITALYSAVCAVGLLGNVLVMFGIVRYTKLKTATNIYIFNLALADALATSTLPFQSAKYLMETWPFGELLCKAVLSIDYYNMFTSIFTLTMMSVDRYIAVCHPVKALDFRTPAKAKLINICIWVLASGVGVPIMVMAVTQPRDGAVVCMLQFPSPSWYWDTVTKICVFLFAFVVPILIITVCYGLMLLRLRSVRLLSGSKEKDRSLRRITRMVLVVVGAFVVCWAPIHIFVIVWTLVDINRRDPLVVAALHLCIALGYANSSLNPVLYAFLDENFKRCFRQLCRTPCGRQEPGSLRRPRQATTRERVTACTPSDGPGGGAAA

Sequence of hDOR (P41143 whole entry): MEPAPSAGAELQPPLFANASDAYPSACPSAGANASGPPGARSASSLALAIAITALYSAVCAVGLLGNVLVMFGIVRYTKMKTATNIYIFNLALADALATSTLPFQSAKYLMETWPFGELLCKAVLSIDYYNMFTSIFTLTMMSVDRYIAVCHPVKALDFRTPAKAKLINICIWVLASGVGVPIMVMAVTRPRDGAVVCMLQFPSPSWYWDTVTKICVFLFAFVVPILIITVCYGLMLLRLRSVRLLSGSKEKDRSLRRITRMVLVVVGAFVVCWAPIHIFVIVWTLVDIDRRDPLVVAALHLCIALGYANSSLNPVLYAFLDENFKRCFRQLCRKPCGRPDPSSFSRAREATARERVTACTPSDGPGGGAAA

## CC[C@@H]1CN2CC[C@@]3(O)C(=Nc4cccc(OC)c43)[C@@H]2C[C@@H]1/C(=C\OC)C(=O)OC [7OH, 7-Hydroxymitragynine, reference compound]
[1]; Log[drug] (M) -9
  Agonist activity of 7OH analogs at hDOR: 15.8661 and 3.122 and 22.479 and 1.833 and -4.308 and 2.475 and 15.4988 and 8.368 and 7.075
[1]; Log[drug] (M) -10
  Agonist activity of 7OH analogs at hDOR: 31.7942 and 19.5741 and 16.1123 and 10.5331 and 9.484 and 5.51 and 21.6698
[1]; Log[drug] (M) -11
  Agonist activity of 7OH analogs at hDOR: 10.918 and -1.6818 and 2.572 and 2.605 and 5.418 and 12.5121 and 11.3973 and 0.7522 and -0.994
[1]; Log[drug] (M) -13
  Agonist activity of 7OH analogs at hDOR: 3.025 and -6.776 and 3.7513 and 10.1702 and 6.174 and 15.4423 and -4.715 and 5.3718 and -0.6565
[1]; read-out: Emax
  Emax: 45%
[2]; Log [drug](M) -5
  Agonist activity of 7OH analogs at rKOR: 51.4853 and 69.9742 and 40.1102 and 17.9877 and 23.0672 and 30.6086 and 23.1026 and 36.1112 and 26.5447
[2]; Log [drug](M) -6
  Agonist activity of 7OH analogs at rKOR: 50.3386 and 47.4584 and 37.1736 and 16.4913 and 27.1082 and 15.3746 and 22.6508 and 23.988 and 23.2951
[2]; Log [drug](M) -7
  Agonist activity of 7OH analogs at rKOR: 32.3706 and 5.504 and 6.859 and 19.3779 and 10.5115 and 15.4551 and 8.6 and 9.151 and 16.9313
[2]; Log [drug](M) -8
  Agonist activity of 7OH analogs at rKOR: 4.174 and 5.52 and 21.8967 and -3.058 and 2.36 and 0.6978 and 14.0563 and 6.31 and 24.1641
[2]; Log [drug](M) -9
  Agonist activity of 7OH analogs at rKOR: 4.922 and -12.3356 and 11.254 and 8.301 and 17.6392 and 14.4513 and 3.607 and 6.21 and -1.551
[2]; Log [drug](M) -10
  Agonist activity of 7OH analogs at rKOR: -1.1625 and -7.143 and 8.305 and 14.5638 and 5.983 and 1.382 and -0.5163 and -2.6368 and 4.024
[2]; Log [drug](M) -11
  Agonist activity of 7OH analogs at rKOR: 3.848 and 0.4662 and 0.6482 and 7.796 and 8.5204 and -1.878 and 0.3369 and -2.372 and 2.035
[2]; Log [drug](M) -13
  Agonist activity of 7OH analogs at rKOR: 5.7561 and 2.46 and -0.5992 and 11.3924 and -1.857 and 11.6902 and 1.603 and -2.596 and 3.807
[3]
  Ki: 21.5 ± 0.8 nM
[4]
  EC50: 48 nM
[4]; Log[drug] (M) -5, mMOR
  cAMP %: 54.7418% and 39.306% and 62.8715% and 90.7674% and 85.3805% and 81.3701% and 80.1578% and 78.2326% and 79.4832%
[4]; Log[drug] (M) -6, mMOR
  cAMP %: 51.4904% and 44.0439% and 41.1377% and 71.7778% and 87.0279% and 84.9352% and 65.6946% and 62.0616% and 68.2077%
[4]; Log[drug] (M) -7, mMOR
  cAMP %: 31.3362% and 29.5321% and 20.0587% and 64.2387% and 61.8389% and 74.7851% and 53.7172% and 48.585% and 45.7301%
[4]; Log[drug] (M) -8, mMOR
  cAMP %: 9.25% and 16.4555% and 10.0292% and 22.5933% and 31.4368% and 25.3107% and 17.3146% and 8.444% and 13.6716%
[4]; Log[drug] (M) -9, mMOR
  cAMP %: 6.25% and 5.067% and 3.569% and -0.5857% and 7.672% and -7.0867% and 8.23% and -1.022% and 10.8029%
[4]; Log[drug] (M) -10, mMOR
  cAMP %: 12.6265% and -11.9755% and 9.001% and 8.7384% and -5.2017% and 8.648% and -2.705% and -3.188% and 5.894%
[4]; Log[drug] (M) -11, mMOR
  cAMP %: -0.9102% and -0.5945% and 1.505% and 10.3177% and 11.6% and 5.328% and 6.124% and -1.189% and -0.6754%
[4]; Log[drug] (M) -13, mMOR, cAMP inhibition as % of DAMGO
  cAMP %: 3.306% and 2.892% and -4.359% and 9.797% and 10.0834% and 11.919% and 5.129% and 4.129% and 1.2769%
[4]; mMOR, maximal inhibitory effect on cAMP levels relative to DAMGO
  Emax: 70%
[5]
  Tail flick (%MPE): 100.00 %MPE (8×) and 57.97 %MPE and 52.05 %MPE
  Tail flick latency: 10 (8×) and 7.1 and 6.5
[6]
  EC50: 71.4 nM
[6]; Log[drug] (M) -5
  Agonist activity of 7OH analogs at mDOR: 79.5205 and 79.1947 and 68.9488 and 85.2247 and 78.2035 and 78.3957 and 62.0758 and 81.7668 and 72.4775
[6]; Log[drug] (M) -6
  Agonist activity of 7OH analogs at mDOR: 49.9165 and 58.342 and 65.4236 and 68.6722 and 65.6062 and 68.2461 and 72.0352 and 62.2673 and 61.4936
[6]; Log[drug] (M) -7
  Agonist activity of 7OH analogs at mDOR: 29.0999 and 46.5592 and 41.3409 and 38.1857 and 36.2209 and 62.8298 and 64.7985 and 75.1004
[6]; Log[drug] (M) -8
  Agonist activity of 7OH analogs at mDOR: 17.0946 and 20.9939 and 16.1181 and 8.745 and 16.0659 and 5.863 and 49.6952 and 40.7941 and 63.5779
[6]; Log[drug] (M) -9
  Agonist activity of 7OH analogs at mDOR: 27.3274 and 1.192 and 34.2965 and 12.9525 and -4.552 and -8.401 and 25.2583 and 24.354 and 24.6431
[6]; Log[drug] (M) -10
  Agonist activity of 7OH analogs at mDOR: 39.904 and 39.7156 and 42.1881 and 15.8228 and 9.006 and 14.7091 and 41.1226 and 23.2827 and 29.2586
[6]; Log[drug] (M) -11
  Agonist activity of 7OH analogs at mDOR: 3.455 and 6.714 and 6.951 and -3.421 and 2.4315 and 1.875 and 9.138 and 13.5385
[6]; Log[drug] (M) -13
  Agonist activity of 7OH analogs at mDOR: 3.619 and 5.368 and -8.987 and -7.007 and 2.297 and 7.3103 and -1.541 and -0.9135 and 2.455
[6]; read-out: Emax
  Emax: 72%
